Measured values as given in patent publication US11066384B2, “Crystalline forms of ARN-509, preparation method and use thereof” (Crystal Pharmaceutical (Suzhou) Co., Ltd., priority 2018, dated 2021).
“Also recorded” adds a separate entry of the source. Where two headings read alike, the source gives them in different places.

Experiments:
[1] = Kinetic solubility of Form CS8, Form A and Form B in pH 1.0-6.8 media (HPLC); type: physicochemical; conditions: for Solubility relative to Form A of the prior art / Solubility relative to Form B of the prior art: 15 minutes
Method: The HPLC method parameters for solubility test in the present disclosure are as follows:
1. Column: Waters XBridge C18 150×4.6 mm, 5 μm
2. Mobile Phase: A: 0.1% TFA in H2O • B: 0.1% TFA in Acetonitrile
4. Injection Volume: 5 μL
5. Detection wavelength: 242 nm
6. Column Temperature: 40° C.
Different parts of the human body have different acidity (pH 1.0-8.0). The pH in stomach is 1.0-2.0, and the pH in the small intestine is 4.0-7.0. The stomach and small intestine are the key organs for drug dissolution and absorption, so measuring the dynamic solubility of a drug in a medium with pH 1.0-7.0 plays an important role in predicting the in vivo bioavailability.
About 20 mg of Form CS8, Form A and Form B of the prior art were suspended into 2.0 mL of 0.1 mol/L HCl aqueous solution (pH=1.0), 2.0 mL of acetic acid buffer solution (PH=4.5) and 2.0 mL of phosphate buffer solution (pH=6.8) to make suspensions. After equilibrated for 15 minutes, 30 minutes, and 1 hour, concentrations (μg/mL) of the saturated solutions were measured by HPLC.

[2] = Compressibility: tensile strength of compacts; type: physicochemical; conditions: 80 mg, φ6 mm round tooling, 10 KN; for Diameter / Hardness / Thickness: after 24 h at room temperature; for Tensile strength: T=2H/πDL
Method: 80 mg of Form CS8, Form A and Form B of the prior art were weighed and added into the dies of φ6 mm round tooling, compressed at 10 KN manually, then stored at room temperature for 24 h until complete elastic recovery. Hardness (H) was tested with an Intelligent Tablet Hardness Tester. Diameter (D) and thickness (L) were tested with a caliper. Tensile strength of the powder was calculated with the following formula: T=2H/πDL. Under a certain force, the greater the tensile strength, the better the compressibility.

[3] = Mechanical stability: manual grinding for 5 minutes (XRPD); type: physicochemical; conditions: ground manually for 5 minutes in a mortar
Method: Form CS8, Form A and Form B of the prior art were ground manually for 5 minutes in a mortar, XRPD patterns were collected before and after gridding. The XRPD pattern overlay of Form CS8, Form A and Form B of the prior art are depicted in FIG. 17, FIG. 18 and FIG. 19.

[4] = Adhesiveness: material sticking to the punch; type: physicochemical; conditions: 30 mg, φ8 mm round tooling, 10 KN, held 30 s
Method: Approximately 30 mg of Form CS8, Form A and Form B of the prior art were weighed and then added into the dies of φ8 mm round tooling, compressed at 10 KN and held for 30 s. The punch was weighed and amount of material sticking to the punch was calculated. The compression was repeated twice and the cumulative amount, maximum amount and average amount of material sticking to the punch during compression process were recorded.

[5] = Particle size distribution (laser particle size analyzer); type: physicochemical; conditions: Isopar G containing 0.2% lecithin
Method: The particle size distribution data in the present disclosure were acquired by an […] laser particle size analyzer of Microtrac. Microtrac […] is equipped with an SDC (Sample Delivery Controller). The test is carried out in wet mode, and the dispersion medium is Isopar G. The laser particle size analyzer parameters are as follows: [table] Approximately 20 mg of Form CS8, Form A and Form B of the prior art were added into 10 mL of Isopar G (containing 0.2% lecithin). The mixture was mixed thoroughly and transferred into the SDC. The measurement was started when the sample amount indicator is in appropriate position. The average particle diameter calculated by volume, the diameter at which 10% mass is comprised of smaller particles (D10), the diameter at which 50% mass is comprised of smaller particles (D50) and the diameter at which 90% mass is comprised of smaller particles (D90) were obtained in particle size distribution test.

[6] = Mechanical stability: tableting under different pressures (XRPD); type: physicochemical
Description: A certain amount of Form CS8 was compressed into pellets under different pressures with suitable tableting die. Crystalline form before and after tableting were checked by XRPD. The test results are shown in Table 14, XRPD pattern overlay is depicted in FIG. 16.

[7] = Storage stability of Form CS8 under stress condition (XRPD); type: physicochemical; conditions: 60° C./75% RH
Method: Approximately 30 mg of Form CS8 was stored under 60° C./75% RH in open or close dishes. Crystalline form change of Form CS8 was tested by XRPD.

[8] = Storage stability of Form CS8 under long-term and accelerated conditions (XRPD, HPLC); type: physicochemical; conditions: for Solid form after storage / Purity after storage / Chemical purity during storage: 6 months; for Purity after storage: initial purity 99.96%; for Time for which the form does not change / keeps stable on storage / Chemical purity during storage: drug substance
Method: The HPLC method parameters for purity test in the present disclosure are as follows: Approximately 30 mg of Form CS8 was stored under 25° C./60% RH and 40° C./75% RH in open or close dishes. Crystalline form and chemical impurity were checked by XRPD and HPLC, respectively. XRPD pattern overlay of Form CS8 of the present disclosure before and after being stored under 25° C./60% RH are depicted in FIG. 13. XRPD pattern overlay of Form CS8 of the present disclosure before and after being stored under 40° C./75% RH are depicted in FIG. 14.

[9] = cited from earlier work
[10] = 0.1 mol/L HCl aqueous solution pH=1.0, equilibrated 15 min
[11] = 0.1 mol/L HCl aqueous solution pH=1.0, equilibrated 30 min
[12] = 0.1 mol/L HCl aqueous solution pH=1.0, equilibrated 1 h
[13] = acetic acid buffer solution pH=4.5, equilibrated 15 min
[14] = acetic acid buffer solution pH=4.5, equilibrated 30 min
[15] = acetic acid buffer solution pH=4.5, equilibrated 1 h
[16] = phosphate buffer solution pH=6.8, equilibrated 15 min
[17] = phosphate buffer solution pH=6.8, equilibrated 30 min
[18] = phosphate buffer solution pH=6.8, equilibrated 1 h
[19] = pH=4.5 acetic acid buffer solution
[20] = pH=6.8 phosphate buffer solution

## CNC(=O)c1ccc(N2C(=S)N(c3cnc(C#N)c(C(F)(F)F)c3)C(=O)C23CCC3)cc1F [Form A of the prior art, 4-[7-(6-cyano-5-trifluoromethylpyridin-3-yl)-8-oxo-6-thioxo-5,7-diazaspiro[3.4]oct-5-yl]-2-fluoro-N-methylbenzamide]
[1]; [10]
  Solubility (concentration of saturated solution): 7.4 µg/mL
[1]; [11]
  Solubility (concentration of saturated solution): 6.2 µg/mL
[1]; [12]
  Solubility (concentration of saturated solution): 8.0 µg/mL
[1]; [13]
  Solubility (concentration of saturated solution): 5.9 µg/mL
[1]; [14]
  Solubility (concentration of saturated solution): 5.2 µg/mL
[1]; [15]
  Solubility (concentration of saturated solution): 5.5 µg/mL
[1]; [16]
  Solubility (concentration of saturated solution): 6.1 µg/mL
[1]; [17]
  Solubility (concentration of saturated solution): 8.4 µg/mL
[1]; [18]
  Solubility (concentration of saturated solution): 4.8 µg/mL
[2]
  Diameter: 6.08 mm
  Hardness: 12.3 N
  Thickness: 2.10 mm
  Tensile strength: 0.64 MPa
[3]
  Crystalline form/crystallinity after grinding: transformed into amorphous after grinding; also recorded: Almost change to amorphous
[4]
  Average amount of material sticking to the punch: 0.13 mg
  Maximum amount of material sticking to the punch: 0.19 mg
[5]
  D10: 4.22 μm
  D50: 14.81 μm
  D90: 130.4 μm
  MV (average particle diameter calculated by volume): 53.51 μm

## CNC(=O)c1ccc(N2C(=S)N(c3cnc(C#N)c(C(F)(F)F)c3)C(=O)C23CCC3)cc1F [Form B of the prior art, 4-[7-(6-cyano-5-trifluoromethylpyridin-3-yl)-8-oxo-6-thioxo-5,7-diazaspiro[3.4]oct-5-yl]-2-fluoro-N-methylbenzamide]
[1]; [10]
  Solubility (concentration of saturated solution): 1.2 µg/mL
[1]; [11]
  Solubility (concentration of saturated solution): 1.5 µg/mL
[1]; [12]
  Solubility (concentration of saturated solution): 1.3 µg/mL
[1]; [13]
  Solubility (concentration of saturated solution): 1.1 µg/mL
[1]; [14]
  Solubility (concentration of saturated solution): 1.4 µg/mL
[1]; [15]
  Solubility (concentration of saturated solution): 1.3 µg/mL
[1]; [16]
  Solubility (concentration of saturated solution): 1.2 µg/mL
[1]; [17]
  Solubility (concentration of saturated solution): 1.0 µg/mL
[1]; [18]
  Solubility (concentration of saturated solution): 0.9 µg/mL
[2]
  Diameter: 6.09 mm
  Hardness: 10.1 N
  Thickness: 2.13 mm
  Tensile strength: 0.50 MPa
[3]
  Crystalline form/crystallinity after grinding: decreases after grinding; also recorded: Crystallinity decreased
[4]
  Average amount of material sticking to the punch: 0.15 mg
  Maximum amount of material sticking to the punch: 0.17 mg
[5]
  D10: 12.1 μm
  D50: 241.7 μm
  D90: 1133 μm
  MV (average particle diameter calculated by volume): 420.3 μm

## CNC(=O)c1ccc(N2C(=S)N(c3cnc(C#N)c(C(F)(F)F)c3)C(=O)C23CCC3)cc1F [Form CS8, 4-[7-(6-cyano-5-trifluoromethylpyridin-3-yl)-8-oxo-6-thioxo-5,7-diazaspiro[3.4]oct-5-yl]-2-fluoro-N-methylbenzamide]
[1]; [10]
  Solubility (concentration of saturated solution): 23.6 µg/mL
[1]; [11]
  Solubility (concentration of saturated solution): 25.1 µg/mL
[1]; [12]
  Solubility (concentration of saturated solution): 18.7 µg/mL
[1]; [13]
  Solubility (concentration of saturated solution): 17.7 µg/mL
[1]; [14]
  Solubility (concentration of saturated solution): 10.6 µg/mL
[1]; [15]
  Solubility (concentration of saturated solution): 10.9 µg/mL
[1]; pH=1.0 HCl aqueous solution
  Solubility relative to Form A of the prior art: 3.2 times
  Solubility relative to Form B of the prior art: 19.7 times
[1]; [19]
  Solubility relative to Form A of the prior art: 3.0 times
  Solubility relative to Form B of the prior art: 16.1 times
[1]; [20]
  Solubility relative to Form A of the prior art: 3.7 times
  Solubility relative to Form B of the prior art: 19.0 times
[1]; [16]
  Solubility (concentration of saturated solution): 22.8 µg/mL
[1]; [17]
  Solubility (concentration of saturated solution): 18.9 µg/mL
[1]; [18]
  Solubility (concentration of saturated solution): 20.6 µg/mL
[6]; pressure 3 kN
  Crystalline form after tableting: Form CS8
[6]; pressure 7 kN
  Crystalline form after tableting: Form CS8
[6]; pressure 14 kN
  Crystalline form after tableting: Form CS8
[7]
  Time for which the form does not change / keeps stable on storage: at least 2 weeks
[7]; container open or close, 2 weeks
  Solid form after storage: Form CS8
[2]
  Diameter: 6.05 mm
  Hardness: 14.6 N
  Thickness: 2.19 mm
  Tensile strength: 0.70 MPa
[8]; 25° C./60% RH (closed)
  Solid form after storage: From CS8
  Purity after storage: 99.96%
[8]; 25° C./60% RH (open)
  Solid form after storage: From CS8
  Purity after storage: 99.96%
[8]; 40° C./75% RH (closed)
  Solid form after storage: From CS8
  Purity after storage: 99.95%
[8]; 40° C./75% RH (open)
  Solid form after storage: From CS8
  Purity after storage: 99.95%
[8]; 25° C./60% RH
  Time for which the form does not change / keeps stable on storage: at least 6 months
  Chemical purity during storage: above 99.9%
[8]; 40° C./75% RH
  Time for which the form does not change / keeps stable on storage: at least 6 months
  Chemical purity during storage: above 99.9%
[3]
  Crystalline form/crystallinity after grinding: doesn't change after grinding
[4]
  Average amount of material sticking to the punch: 0.08 mg
  Maximum amount of material sticking to the punch: 0.11 mg
[5]
  D10: 48.60 μm
  D50: 100.8 μm
  D90: 164.9 μm
  MV (average particle diameter calculated by volume): 104.7 μm

## CNC(=O)c1ccc(N2C(=S)N(c3cnc(C#N)c(C(F)(F)F)c3)C(=O)C23CCC3)cc1F [Form F, 4-[7-(6-cyano-5-trifluoromethylpyridin-3-yl)-8-oxo-6-thioxo-5,7-diazaspiro[3.4]oct-5-yl]-2-fluoro-N-methylbenzamide]
[9]; ambient conditions
  Crystal form transformation: transform to form A

## CNC(=O)c1ccc(N2C(=S)N(c3cnc(C#N)c(C(F)(F)F)c3)C(=O)C23CCC3)cc1F [Form H, 4-[7-(6-cyano-5-trifluoromethylpyridin-3-yl)-8-oxo-6-thioxo-5,7-diazaspiro[3.4]oct-5-yl]-2-fluoro-N-methylbenzamide]
[9]; high temperature and high humidity conditions
  Crystal form transformation: easily transformed into form B

## CNC(=O)c1ccc(N2C(=S)N(c3cnc(C#N)c(C(F)(F)F)c3)C(=O)C23CCC3)cc1F [Form I, 4-[7-(6-cyano-5-trifluoromethylpyridin-3-yl)-8-oxo-6-thioxo-5,7-diazaspiro[3.4]oct-5-yl]-2-fluoro-N-methylbenzamide]
[9]; high humidity conditions
  Crystal form transformation: transform to form B
